# Reference: US10919935B2, “Antimicrobial peptide derived from myxinidin peptide and uses thereof” (INDUSTRY-ACADEMIC COOPERATION FOUNDATION, CHOSUN UNIVERSITY, priority 2015, dated 2021)
# Residues, ends and D or L forms follow the SMILES beside them.
# How the values were obtained:
# Type in all cases: cell-based
# [1] = system: Acinetobacter baumannii 719705; assay: Anti-microbial disk diffusion susceptibility test with gelatin; settings: 0.1% gelatin
# Description: (§1) FIGS. 4A to 4C show the results of determining the antimicrobial activity when the peptides of the present invention are admixed with gelatin used as a wound moisturizing agent. FIG. 4A: Determination of survival ratio of skin keratinocyte cells in accordance with a change in gelatin concentration; FIG. 4B: Measurement of minimum inhibitory concentration (MIC, μM) of the peptides for Staphylococcus aureus (S. aureus 3018), Acinetobacter baumannii (A. baumannii 719705), and Pseudomonas aeruginosa (P. aeruginosa 4076), in which the result is shown for different gelatin concentrations; FIG. 4C: Result of the anti-microbial disk diffusion susceptibility test carried out for Staphylococcus aureus (S. aureus 3018), Acinetobacter baumannii (A. baumannii 719705), and Pseudomonas aeruginosa (P. aeruginosa 4076), in which the result is shown for different peptide concentrations and also for the presence or absence of gelatin co-blending.
# (§2) To specifically determine the antimicrobial activity at the time of mixing the synthetic peptide of the present invention with gelatin, myxinidin 2 and myxinidin 3 synthetic peptides were admixed with 0.1% gelatin. Furthermore, to determine the antimicrobial activity, a minimum inhibitory concentration measurement and an anti-microbial disk diffusion susceptibility test as an agar diffusion method were carried out for Acinetobacter baumannii, Pseudomonas aeruginosa, and Staphylococcus aureus.
# (§3) Specifically, cultured Acinetobacter baumannii, Pseudomonas aeruginosa, and Staphylococcus aureus were diluted to a concentration of 2×10^5 cells/ml, admixed with a solution in which 0.1% gelatin is mixed with 1% agarose, and cultured. To see the antimicrobial activity, the peptide was applied on a 6 mm round disk, in which the peptide was applied at various different concentrations, and the diffusion level was measured.
# [2] = system: Pseudomonas aeruginosa 4076; assay: as above; settings: 0.1% gelatin
# Description: as §1, §2, §3
# [3] = system: Staphylococcus aureus 3018; assay: as above; settings: 0.1% gelatin
# Description: as §1, §2, §3
# [4] = system: human skin keratinocyte cells infected with bacteria having tolerance to antibiotics; assay: Migration of infected skin keratinocyte cells (scrape wound); settings: peptide at 2 times MIC
# Description: To determine the wound healing effect of the peptide of the present invention by activating migration of skin keratinocyte cells infected with Acinetobacter baumannii, Pseudomonas aeruginosa, or Staphylococcus aureus, which are the bacterial strain having tolerance to antibiotics, the adhered cells were damaged to have an infection followed by a treatment with myxinidin 2 or myxinidin 3. The resulting cells were then observed under a microscope.
# Specifically, human skin keratinocyte cells were cultured at 1×10^6 cells/ml, and then scraped off using a tip. Then, the cells were infected with Staphylococcus aureus, Acinetobacter baumannii, or Pseudomonas aeruginosa, which are the bacterial strain having tolerance to antibiotics, followed by a treatment with the peptide at a concentration that is 2 times higher than the minimum inhibitory concentration. Cell migration was then observed under a microscope.
# [5] = infection with Acinetobacter baumannii
# [6] = infection with Pseudomonas aeruginosa
# [7] = infection with Staphylococcus aureus
Compound,Antimicrobial activity with gelatin (disk diffusion) [1],Antimicrobial activity with gelatin (disk diffusion) [2],Antimicrobial activity with gelatin (disk diffusion) [3],"Cell migration / regeneration of scraped keratinocytes [4, 5]","Cell migration / regeneration of scraped keratinocytes [4, 6]","Cell migration / regeneration of scraped keratinocytes [4, 7]"
"CC[C@H](C)[C@H](NC(=O)[C@H](Cc1c[nH]c2ccccc12)NC(=O)[C@H](CCCCN)NC(=O)[C@@H](NC(=O)[C@@H](N)CCCCN)[C@@H](C)CC)C(=O)N[C@@H](CC(C)C)C(=O)N[C@@H](CCCCN)C(=O)N[C@@H](Cc1ccc(O)cc1)C(=O)N[C@@H](Cc1c[nH]c2ccccc12)C(=O)N[C@@H](CCCCN)C(=O)N[C@@H](Cc1c[nH]c2ccccc12)C(=O)N[C@@H](CO)C(N)=O [Myxinidin 2, KIKWILKYWKWS-NH2] (H-KIKWILKYWKWS-NH2; N-terminus assumed)",the antimicrobial activity was maintained,exhibited the antimicrobial activity,a similar antimicrobial activity was maintained,proliferation with no cell death,fast regeneration rate,Proliferation with no cell death
"CC[C@H](C)[C@H](NC(=O)[C@H](Cc1c[nH]c2ccccc12)NC(=O)[C@H](CCCNC(=N)N)NC(=O)[C@@H](NC(=O)[C@@H](N)CCCNC(=N)N)[C@@H](C)CC)C(=O)N[C@@H](CC(C)C)C(=O)N[C@@H](CCCNC(=N)N)C(=O)N[C@@H](Cc1ccc(O)cc1)C(=O)N[C@@H](Cc1c[nH]c2ccccc12)C(=O)N[C@@H](CCCNC(=N)N)C(=O)N[C@@H](Cc1c[nH]c2ccccc12)C(=O)N[C@@H](CO)C(N)=O [Myxinidin 3, RIRWILRYWRWS-NH2] (H-RIRWILRYWRWS-NH2; N-terminus assumed)",exhibited a slightly higher antimicrobial activity when the treatment is made only with the peptide,exhibited the antimicrobial activity,a similar antimicrobial activity was maintained,fast regeneration rate,proliferation with no cell death,more rapid regeneration
